According to US20260034044A1, “A PRESERVATIVE COMPOSITION” (AnalytiCon Discovery - Zweigniederlassung der BRAIN Biotech …, priority 2022, published 2026):
Values after ≈ are worked out from the molar mass of the structure shown.

Columns and labels:
Format in all cases: cell-based
[1] = test system: Porphyromonas gingivalis DSM 20709; assay: Antimicrobial activity (MIC); conditions: DSM20709, potato dextrose broth pH 3.8, visual evaluation, read-out: Minimal Inhibitory Concentration (MIC)
[2] = test system: Malassezia furfur DSM 6170; assay: Antimicrobial activity (MIC); conditions: DSM6170, potato dextrose broth pH 3.8, visual evaluation, read-out: Minimal Inhibitory Concentration (MIC)
[3] = test system: Lactobacillus paracasei ssp. paracasei DSM 46331; assay: Antimicrobial activity (MIC); conditions: Lacticaseibacillus paracasei, DSM46331, potato dextrose broth pH 3.8, visual evaluation, read-out: Minimal Inhibitory Concentration (MIC)
[4] = test system: Alternaria alternata DSM 12633; assay: Antimicrobial activity (MIC); conditions: DSM12633, potato dextrose broth pH 3.8, visual evaluation, read-out: Minimal Inhibitory Concentration (MIC)
[5] = test system: Pasteurella multocida ssp. multocida DSM 16031; assay: Antimicrobial activity (MIC); conditions: DSM16031, potato dextrose broth pH 3.8, visual evaluation, read-out: Minimal Inhibitory Concentration (MIC)
[6] = test system: Brettanomyces naardenensis CBS 6115; assay: Antimicrobial activity (MIC); conditions: CBS6115, potato dextrose broth pH 3.8, visual evaluation, read-out: Minimal Inhibitory Concentration (MIC)
[7] = test system: Staphylococcus aureus DSM 2569; assay: Antimicrobial activity (MIC); conditions: DSM2569, potato dextrose broth pH 3.8, visual evaluation, read-out: Minimal Inhibitory Concentration (MIC)
[8] = test system: Cutibacterium acnes DSM 1897; assay: Antimicrobial activity (MIC); conditions: DSM1897, potato dextrose broth pH 3.8, visual evaluation, read-out: Minimal Inhibitory Concentration (MIC)
[9] = test system: Candida albicans ATCC10231; assay: Antimicrobial activity (MIC); conditions: potato dextrose broth pH 3.8, visual evaluation, read-out: Minimal Inhibitory Concentration (MIC)
[10] = test system: Campylobacter jejuni DSM 4688; assay: Antimicrobial activity (MIC); conditions: DSM4688, potato dextrose broth pH 3.8, visual evaluation, read-out: Minimal Inhibitory Concentration (MIC)
[11] = test system: Saccharomyces cerevisiae DSM 2548; assay: Antimicrobial activity (MIC); conditions: DSM2548, potato dextrose broth pH 3.8, visual evaluation, read-out: Minimal Inhibitory Concentration (MIC)
[12] = test system: Botrytis cinerea DSM 5145; assay: Antimicrobial activity (MIC); conditions: DSM5145, potato dextrose broth pH 3.8, visual evaluation, read-out: Minimal Inhibitory Concentration (MIC)
[13] = test system: Cladosporium cladosporioides DSM19653; assay: Antimicrobial activity (MIC); conditions: potato dextrose broth pH 3.8, visual evaluation, read-out: Minimal Inhibitory Concentration (MIC)
[14] = test system: Clostridium perfringens DSM 756; assay: microbe, parasite or virus in culture; conditions: DSM756, pH 3.8, read-out: Minimal Inhibitory Concentration (MIC)
[15] = test system: Bacillus licheniformis DSM 13; assay: Antimicrobial activity (MIC); conditions: DSM13, potato dextrose broth pH 3.8, visual evaluation, read-out: Minimal Inhibitory Concentration (MIC)
[16] = test system: Actinomyces viscosus DSM43798; assay: Antimicrobial activity (MIC); conditions: potato dextrose broth pH 3.8, visual evaluation, read-out: Minimal Inhibitory Concentration (MIC)
[17] = test system: Listeria monocytogenes DSM 20600; assay: Antimicrobial activity (MIC); conditions: DSM20600, potato dextrose broth pH 3.8, visual evaluation, read-out: Minimal Inhibitory Concentration (MIC)
[18] = test system: Zygosaccharomyces rouxii DSM 7525; assay: Antimicrobial activity (MIC); conditions: DSM7525, potato dextrose broth pH 3.8, visual evaluation, read-out: Minimal Inhibitory Concentration (MIC)
[19] = test system: Candida parapsilosis ATCC 20384; assay: Antimicrobial activity (MIC); conditions: Lodderomyces parapsilosis, ATCC20384, potato dextrose broth pH 3.8, visual evaluation, read-out: Minimal Inhibitory Concentration (MIC)
[20] = test system: Leuconostoc lactis DSM 20202; assay: Antimicrobial activity (MIC); conditions: DSM20202, potato dextrose broth pH 3.8, visual evaluation, read-out: Minimal Inhibitory Concentration (MIC)
[21] = test system: Gluconacetobacter liquefaciens DSM 5603; assay: Antimicrobial activity (MIC); conditions: DSM5603, potato dextrose broth pH 3.8, visual evaluation, read-out: Minimal Inhibitory Concentration (MIC)
[22] = test system: Leuconostoc mesenteroides ssp. mesenteroides DSM 20343; assay: Antimicrobial activity (MIC); conditions: DSM20343, potato dextrose broth pH 3.8, visual evaluation, read-out: Minimal Inhibitory Concentration (MIC)
[23] = test system: Corynebacterium xerosis DSM 20743; assay: Antimicrobial activity (MIC); conditions: DSM20743, potato dextrose broth pH 3.8, visual evaluation, read-out: Minimal Inhibitory Concentration (MIC)
[24] = test system: Zygosaccharomyces bailii DSM 70834; assay: Antimicrobial activity (MIC); conditions: DSM70834, potato dextrose broth pH 3.8, visual evaluation, read-out: Minimal Inhibitory Concentration (MIC)
Bacillus cereus DSM4490 = assay: Antimicrobial activity (MIC); conditions: potato dextrose broth pH 3.8, visual evaluation, read-out: Minimal Inhibitory Concentration (MIC)
[25] = test system: Enterococcus faecalis ATCC 7080; assay: Antimicrobial activity (MIC); conditions: ATCC7080, potato dextrose broth pH 3.8, visual evaluation, read-out: Minimal Inhibitory Concentration (MIC)
[26] = test system: Enterobacter cloacae DSM 6234; assay: Antimicrobial activity (MIC); conditions: DSM6234, potato dextrose broth pH 3.8, visual evaluation, read-out: Minimal Inhibitory Concentration (MIC)
[27] = test system: Pseudomonas fluorescens DSM50337; assay: Antimicrobial activity (MIC); conditions: potato dextrose broth pH 3.8, visual evaluation, read-out: Minimal Inhibitory Concentration (MIC)
[28] = test system: Alicyclobacillus acidoterrestris DSM 2498; assay: Antimicrobial activity (MIC); conditions: DSM2498, potato dextrose broth pH 3.8, visual evaluation, read-out: Minimal Inhibitory Concentration (MIC)
[29] = test system: Phanerochaete chrysosporium DSM 1556; assay: Antimicrobial activity (MIC); conditions: Phanerodontia chrysosporium, DSM1556, potato dextrose broth pH 3.8, visual evaluation, read-out: Minimal Inhibitory Concentration (MIC)

Row | SMILES | MIC [1] [µg/mL] | MIC [2] [µg/mL] | MIC [3] [µg/mL] | MIC [4] [µg/mL] | MIC [5] [µg/mL] | MIC [6] [µg/mL] | MIC [7] [µg/mL] | MIC [8] [µg/mL] | MIC [9] [µg/mL] | MIC [10] [µg/mL] | MIC [11] [µg/mL] | MIC [12] [µg/mL] | MIC [13] [µg/mL] | MIC [14] [µg/mL] | MIC [15] [µg/mL] | MIC [16] [µg/mL] | MIC [17] [µg/mL] | MIC [18] [µg/mL] | MIC [19] [µg/mL] | MIC [20] [µg/mL] | further results
1 | C[C@H]1CC[C@@]2(OC1)O[C@H]1CC3C4CC[C@H]5C[C@@H](O[C@@H]6O[C@H](CO)[C@H](O[C@@H]7O[C@H](CO)[C@@H](O)[C@H](O[C@@H]8OC[C@@H](O)[C@H](O)[C@H]8O)[C@H]7O[C@@H]7O[C@H](CO)[C@@H](O)[C@H](O)[C@H]7O)[C@H](O)[C@H]6O)[C@H](O)C[C@]5(C)C4=CC(=O)[C@]3(C)[C@H]1[C@@H]2C (stereo partly drawn) [A] | > 80 | > 80 | > 80 | > 80 | > 80 | > 80 | > 80 | > 80 | > 80 | > 80 | > 80 | > 80 | > 80 | > 80 | > 80 | > 80 | > 80 | 500 (≈ 470 µM) | > 80 | 80 (≈ 75.2 µM) | MIC [21]: 140 µg/mL (≈ 132 µM); MIC [22]: > 80 µg/mL; MIC [23]: > 80 µg/mL; MIC [24]: > 80 µg/mL; MIC (Bacillus cereus DSM4490): > 80 µg/mL; MIC [25]: > 80 µg/mL; MIC [26]: > 80 µg/mL; MIC [27]: > 80 µg/mL; MIC [28]: 40 µg/mL (≈ 37.6 µM); MIC [29]: > 80 µg/mL
2 | CC1CC[C@@]2(OC1)O[C@H]1CC3C4CC=C5C[C@@H](O[C@@H]6O[C@H](CO)[C@@H](O[C@@H]7O[C@@H](C)[C@H](O)[C@@H](O)[C@H]7O)[C@H](O)[C@H]6O[C@@H]6O[C@@H](C)[C@H](O)[C@@H](O)[C@H]6O)CC[C@]5(C)C4CC[C@]3(C)[C@@]1(O)[C@@H]2C (stereo partly drawn) [C] | > 80 | 80 (≈ 90.4 µM) | > 80 | > 80 | > 80 | > 80 | > 80 | > 80 | > 80 | > 80 | > 80 | > 80 | > 80 | > 80 | > 80 | > 80 | > 80 | 500 (≈ 565 µM) | > 80 | > 80 | MIC [21]: 40 µg/mL (≈ 45.2 µM); MIC [22]: > 80 µg/mL; MIC [23]: > 80 µg/mL; MIC [24]: > 80 µg/mL; MIC (Bacillus cereus DSM4490): > 80 µg/mL; MIC [25]: > 80 µg/mL; MIC [26]: > 80 µg/mL; MIC [27]: > 80 µg/mL; MIC [28]: 80 µg/mL (≈ 90.4 µM); MIC [29]: > 80 µg/mL
3 | C[C@H]1CC[C@@]2(OC1)O[C@H]1CC3C4CC[C@H]5C[C@@H](O[C@@H]6O[C@H](CO)[C@H](O[C@@H]7O[C@H](CO)[C@@H](O)[C@H](O)[C@H]7O[C@@H]7O[C@H](CO)[C@@H](O)[C@H](O)[C@H]7O)[C@H](O)[C@H]6O)[C@H](O)C[C@]5(C)C4=CC(=O)[C@]3(C)[C@H]1[C@@H]2C (stereo partly drawn) [D] | > 80 | > 80 | > 80 | > 80 | > 80 | > 80 | > 80 | > 80 | > 80 | > 80 | > 80 | > 80 | > 80 | > 80 | > 80 | > 80 | > 80 | 500 (≈ 537 µM) | > 80 | 80 (≈ 85.9 µM) | MIC [21]: 140 µg/mL (≈ 150 µM); MIC [22]: > 80 µg/mL; MIC [23]: > 80 µg/mL; MIC [24]: > 80 µg/mL; MIC (Bacillus cereus DSM4490): > 80 µg/mL; MIC [25]: > 80 µg/mL; MIC [26]: > 80 µg/mL; MIC [27]: > 80 µg/mL; MIC [28]: 40 µg/mL (≈ 43 µM); MIC [29]: > 80 µg/mL
4 | C[C@@H]1CC[C@@]2(OC1)O[C@H]1CC3C4CC=C5CC(O[C@@H]6O[C@H](CO)[C@@H](O[C@@H]7O[C@@H](C)[C@H](O[C@@H]8O[C@@H](C)[C@H](O)[C@@H](O)[C@H]8O)[C@@H](O)[C@H]7O)[C@H](O)[C@H]6O[C@@H]6O[C@@H](C)[C@H](O)[C@@H](O)[C@H]6O)CC[C@]5(C)C4CC[C@]3(C)[C@@]1(O)[C@@H]2C (stereo partly drawn) [B] | > 80 | 80 (≈ 77.6 µM) | > 80 | > 80 | > 80 | > 80 | > 80 | > 80 | > 80 | > 80 | > 80 | > 80 | > 80 | > 80 | > 80 | > 80 | > 80 | 500 (≈ 485 µM) | > 80 | > 80 | MIC [21]: 40 µg/mL (≈ 38.8 µM); MIC [22]: > 80 µg/mL; MIC [23]: > 80 µg/mL; MIC [24]: > 80 µg/mL; MIC (Bacillus cereus DSM4490): > 80 µg/mL; MIC [25]: > 80 µg/mL; MIC [26]: > 80 µg/mL; MIC [27]: > 80 µg/mL; MIC [28]: 140 µg/mL (≈ 136 µM); MIC [29]: > 80 µg/mL
